Measurements from patent US8258128B2, “Organic compounds” (Novartis AG, priority 2006, dated 2012).
Where a name gives a salt, the structure may show the parent alone.

Columns and labels:
[1] = system: collagen-induced arthritis in the rats; assay: Collagen-induced arthritis in the rats, histological evaluation of hind paws; type: in vivo, rat; details: 1 mg/kg/day p.o., day 11
Description: (§1) Method: For this study, COMPOUND A and COX-inhibitor Diclofenac are dissolved in a solvent containing 5% of glucose (5 ml/kg). Compounds are given orally once a day. Female rats of the WAGxBUF/F1 crossbred strain (weight 130 g) are used. The animals are divided into several groups, one placebo group (N=8), and four treatment groups (each N=7-8). Treatment starts on peak of disease (day 0) and continues for 11 days. Swelling is assessed at regular time intervals by measuring the external thickness of the hind paws in the region of the metatarsals using a micro-caliper. Tissue samples for histological evaluation are obtained at the end of the in vivo experiment, 5 h after the last oral dose of COMPOUND A or placebo on day 11.
Hind paws from control arthritic rats (vehicle-treated), taken post-mortem at the end of day 11 of the treatment, obtained relatively high histological scorings compared to histological scores of animals treated with COMPOUND A (0.3, 1, 3 and 9 mg/kg) or Diclofenac (1 mg/kg).

[2] = system: collagen-induced arthritis in the rats; assay: Collagen-induced arthritis in the rats, hind paw swelling; type: in vivo, rat
Text: Animal models of RA need to reflect at least some of the features found in human RA (Billingham et al., 1979). Collagen-induced arthritis (CIA) has been proposed to meet these requirements (Durie et al., 1994). Especially the similarity in the joint pathophysiology makes this animal model most attractive for the evaluation of anti-rheumatic drugs (Takeshita et al., 1997). Synovial hyperplasia, which is an integral part of the disease, parallels the migration of leukocytes into the joint space; erosion and destruction of the cartilage surface can also be found (Holmdahl et al., 1985). The rat CIA, originally described by Trentham et al. (1977), was established and extensive studies with CsA were done, including three-dimensional magnetic resonance imaging (MRI) and histology (Beckmann et al., 1995; 1998). Differences in the susceptibility of several rat strains for the development of the disease have been reported (Cremer et al., 1995; Kamada et al., 1997; Knoerzer et al., 1997).
as §1
Results shown are means±SEM of groups of each 4-8 animals of paw diameters in mm on day-12 (before the immunization with Type II collagen in incomplete Freund's adjuvant), day 0 (start of treatment) and day 11 (end of treatment).
The data shown represent the ability of the treatment (COMPOUND A at 4 different increasing doses) to reduce the volume of the hind paw measured at day 2, day 7 and day 11.

[3] = system: rat carrageenan edema model; assay: Carrageenan edema in the rat (paw swelling); type: in vivo; details: for % inhibition of paw swelling: 3 mg/kg p.o.
Description: Carrageenan edema in the rat: The effects of COMPOUND A are investigated in the carrageenan edema model. In this model an acute paw swelling is induced by the sub-plantar injection of carrageenan. The paw swelling has a duration of approximately 8 hours and is completely resolved at 24 hours. The model is used to assess anti-inflammatory activities of new therapeutics and is also sensitive to drugs such as COX-inhibitors like Diclofenac, which is used as a positive control compound in the model.
Method: Male OFA rats (5 animals/group) are treated orally with COMPOUND A (1, 3 and 9 mg/kg), Diclofenac (3 mg/kg) or vehicle (placebo formulation). One hour later (0 hours) the rats receive a 100 μl intra-plantar injection of a 1% w/v carrageenan solution in 0.9% saline in the hind paw and the diameter of the paw is measured by means of a micro-caliper. The paw diameter measurements are repeated 3 and 5 hours after injection of the carrageenan. Percentage inhibition of paw swelling at 3 and 5 hours is calculated by reference to vehicle treated animals (0% inhibition).
Edema is induced by a sub-plantar injection of carrageenan in the paw of the rat. Paw diameters are measured at the time of carrageenan injection (0 hours) and at 3 and 5 hours. Compounds are administered 1 hour before the carrageenan injection. COMPOUND A was dosed at 1, 3 and 9 mg/kg p.o. and Diclofenac at 3 mg/kg p.o.

[4] = system: established Adjuvant-induced arthritis in rats; assay: Established adjuvant-induced arthritis in rats (therapeutic dosing schedule); type: in vivo, rat; details: 1 mg/kg/day p.o., 7 day treatment (Table 7)
Text: Adjuvant arthritis can be treated using two different dosing schedules; either starting at the time of immunization with adjuvant (prophylactic dosing) or from day 15 when the arthritic response is already established (therapeutic dosing). It is more difficult to inhibit adjuvant arthritis with the therapeutic dosing schedule as compared to the prophylactic schedule. Both versions of adjuvant arthritis are, however, extremely sensitive to the effects of both non-selective COX inhibitors and COX 2 selective inhibitors where 70-90% inhibition of swelling can be achieved at appropriate doses. These models may be predictive for some of the processes thought to be relevant in rheumatoid arthritis.
Method: Female Wistar rats weighing 150-170 g (housed in standard conditions, 5 animals per cage, with food and water ad libitum) are injected i.d. at the base of the tail with 0.1 ml of mineral oil containing 0.6 mg of lyophilized heat-killed Mycobacterium tuberculosis. The rats are treated orally with COMPOUND A or placebo formulation from day 15 to day 22 (therapeutic dosing schedule) or with COMPOUND A from day 0 to day 14 after immunization (prophylactic dosing schedule). At the end of the experiment, the swelling of the tarsal joints is measured by means of a micro-caliper. For the comparison study to Diclofenac both compounds are given from day 15 to day 29 with readouts at day 22 and 29. Percentage inhibition of paw swelling is calculated by reference to placebo treated arthritic animals (0% inhibition) and placebo treated normal animals (100% inhibition). Five animals are used per group. Data are analyzed using Kruskal-Wallis non-parametric ANOVA followed by Dunn's Multiple Comparison test.

| melting point | SMILES | Bone apposition, effect on histological score [1] | Cartilage damage, effect on histological score [1] | Infiltration of cells, effect on histological score [1] | Loss of PG, effect on histological score [1] | hind paw diameter, mean ± SEM ([2]; 1 mg/kg group, Day 0 (start of treatment)) | hind paw diameter, mean ± SEM ([2]; 1 mg/kg group, Day −12 (before immunization)) | median inhibition of swelling, analysis of the AUC during day 0 to 11 ([2]; 1 mg/kg per day p.o.) | hind paw diameter, mean ± SEM ([2]; 1 mg/kg per day p.o., Day 11 (end of treatment)) | % inhibition of paw swelling ([3]; 3 hrs after carrageenan) | % inhibition of paw swelling ([3]; 5 hrs after carrageenan) | inhibition in the carrageenan edema model ([3]; 3 mg/kg, at both times (3 and 5 hours)) | Swelling (mm) ± S.D. [4] |
| --- | --- | --- | --- | --- | --- | --- | --- | --- | --- | --- | --- | --- | --- |
| 186 to 188 °C | COC1=Nc2cc(Cl)ccc2/C(=C/C(=O)O)c2sccc21 [Compound 1.001, [7-Chloro-10-methoxy-3-thia-9-aza-benzo[f]azulen-(4Z)-ylidene]-acetic acid] | – | – | – | – | – | – | – | – | – | – | – | – |
| – | O=C(O)Cc1ccccc1Nc1c(Cl)cccc1Cl [Diclofenac, sodium salt of 2-[(2,6-dichlorophenyl)amino]benzeneacetic acid, reference compound] | −38% | −32% | −22% | −24% | 5.300 ± 0.265 mm | 3.038 ± 0.024 mm | 57±9.9% | 3.750 ± 0.029 mm | 91% | 87% | 87-91% | 4.27 ± 0.31 mm |
